“Also recorded” adds a separate entry of the source.
Legend:
Type in all cases: cell-based
F508del-CFTR [1] = target: T1, F508del-CFTR (Homo sapiens, UniProt P13569, DEL508-508); experiment: HS-YFP kinetic fluorescence (iodide quenching rate) assay in CFBE41o− cells; design: expressed in transfected cells; host or cells: CFBE41o- cells with expression of F508del-CFTR and HS-YFP (generated as in Sondo et al. 2011); settings: for AI (%) additivity index: Table 1, HS-YFP assay; for AI (%) additivity index / AI additivity index: compound at 10 μM plus VX-809, (QRTOT − QRVX)/QRVX; for structure-activity comparison of corrector potency/activity: relative to the analogue; for AI additivity index: Table 1a
Outline: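 CFBE41o- cells co-expressing F508del-CFTR and HS-YFP, treated 24 h with compound (0.1-0.2% DMSO), then stimulated with 20 μM forskolin plus 50 μM genistein. Fluorescence was read for 14 s during NaI injection. Background-subtracted, normalized traces were fitted exponentially to give maximum quenching rate (QR).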

F508del-CFTR [2] = target: T1, F508del-CFTR; experiment: Analysis of F508del-CFTR maturation by immunoblot in CFBE41o− cells; design: expressed in transfected cells; host or cells: CFBE41o- cells with expression of F508del-CFTR and HS-YFP (generated as in Sondo et al. 2011); settings: compound 10 μM plus VX-809 1 μM, 24 hr
Method: CFBE41o− cells were grown to confluence on 60-mm diameter dishes and lysed in RIPA buffer containing a complete protease inhibitor (Roche; cat. n. 11697498001). Cell lysates were centrifuged at 12000 rpm at 4° C. for 10 min. Supernatant protein concentration was calculated using the BCA assay (Euroclone; cat. n. EMP014500) following the manufacturer's instructions. Equal amounts of total protein content (30 μg) were separated onto 10% Criterion TGX Precast gels (Bio-rad laboratories Inc.; cat. n. 4561033), transferred to nitrocellulose membrane with Trans-Blot Turbo system (Bio-rad Laboratories Inc.) and analyzed by Western blotting. Primary antibody for CFTR was anti-CFTR 596 (University of North Carolina at Chapel Hill, and Cystic Fibrosis Foundation Therapeutics, see Cui L, et al. J. Mol Biol 2007, 365, 981-994) at 1:5000 dilution. As secondary antibody, anti-mouse HRP-conjugated Ab 97023 (Abcam) was used at 1:10000 dilution. Results were subsequently visualized by chemiluminescence using the SuperSignal West Femto Substrate (Thermo Scientific) and the Molecular Imager ChemiDoc XRS System.
To analyze the mechanism of action of the compounds of the invention, two types of experiments were carried out. In the first type of experiment, the electrophoretic mobility of F508del-CFTR protein was determined by immunoblot assay. This is a frequently used method to assess the effect of correctors at the protein level. In control conditions, F508del-CFTR migrates predominantly as a single band of 150 kDa called “band B”. This is the immature form of the protein residing in the endoplasmic reticulum. When the protein folding and stability is improved by correctors, an additional band appears at higher molecular weight (170 kDa). This is the so-called band C, which represents the mature form of the CFTR protein that has reached the Golgi compartment and acquired full glycosylation.

G542X-CFTR = experiment: HS-YFP assay in null CFBE41o− cells transfected with G542X-CFTR; settings: G418 0.5 mg/ml alone, 24 hr
Method: To assess the function and pharmacological sensitivity of G542X-CFTR mutant, inventors used the null version of CFBE41o− cells, i.e. cells with negligible expression of endogenous CFTR and without HS-YFP. Such cells were transiently transfected with the plasmid coding for HS-YFP alone or in combination with: empty plasmid, plasmid coding for wild type CFTR, or plasmid coding for G542X-CFTR. For transfection, cells were seeded in 96-well microplates (30,000 cells/well) in 150 μl of antibiotic-free culture medium. After 24 hours, cells were transfected with the desired plasmids. For each well, 0.2 μg of total plasmid DNA and 0.5 μl of Lipofectamine 2000 (Invitrogen) were first pre-mixed in 50 μl of OPTIMEM (Invitrogen) to generate transfection complexes (60 minutes at room temperature), and then added to the cells. After 24 hour, the complexes were removed by replacement with fresh culture medium. The HS-YFP functional assay was performed after further 24 hours.
To assess the ability of compounds of present invention to improve the rescue of premature stop codon (class I) mutations, we carried out experiments on G542X-CFTR (FIG. 7). Null CFBE41o− cells, devoid of endogenous CFTR expression, were transiently transfected with empty, wild type CFTR or G542X-CFTR plasmids. All cells also received the HS-YFP plasmid to allow functional determination of CFTR-dependent anion transport. […] Where indicated, cells with G542X-CFTR were also treated with G418 (0.5 mg/ml) for 24 hr to induce readthrough of the stop codon mutation, with and without correctors (VX-809 and/or PP028, labeled as VX and PP). […] The activity resulting from wild type CFTR is also shown for comparison.

T1 sequence (P13569 with tags, fused parts or gaps DEL508-508): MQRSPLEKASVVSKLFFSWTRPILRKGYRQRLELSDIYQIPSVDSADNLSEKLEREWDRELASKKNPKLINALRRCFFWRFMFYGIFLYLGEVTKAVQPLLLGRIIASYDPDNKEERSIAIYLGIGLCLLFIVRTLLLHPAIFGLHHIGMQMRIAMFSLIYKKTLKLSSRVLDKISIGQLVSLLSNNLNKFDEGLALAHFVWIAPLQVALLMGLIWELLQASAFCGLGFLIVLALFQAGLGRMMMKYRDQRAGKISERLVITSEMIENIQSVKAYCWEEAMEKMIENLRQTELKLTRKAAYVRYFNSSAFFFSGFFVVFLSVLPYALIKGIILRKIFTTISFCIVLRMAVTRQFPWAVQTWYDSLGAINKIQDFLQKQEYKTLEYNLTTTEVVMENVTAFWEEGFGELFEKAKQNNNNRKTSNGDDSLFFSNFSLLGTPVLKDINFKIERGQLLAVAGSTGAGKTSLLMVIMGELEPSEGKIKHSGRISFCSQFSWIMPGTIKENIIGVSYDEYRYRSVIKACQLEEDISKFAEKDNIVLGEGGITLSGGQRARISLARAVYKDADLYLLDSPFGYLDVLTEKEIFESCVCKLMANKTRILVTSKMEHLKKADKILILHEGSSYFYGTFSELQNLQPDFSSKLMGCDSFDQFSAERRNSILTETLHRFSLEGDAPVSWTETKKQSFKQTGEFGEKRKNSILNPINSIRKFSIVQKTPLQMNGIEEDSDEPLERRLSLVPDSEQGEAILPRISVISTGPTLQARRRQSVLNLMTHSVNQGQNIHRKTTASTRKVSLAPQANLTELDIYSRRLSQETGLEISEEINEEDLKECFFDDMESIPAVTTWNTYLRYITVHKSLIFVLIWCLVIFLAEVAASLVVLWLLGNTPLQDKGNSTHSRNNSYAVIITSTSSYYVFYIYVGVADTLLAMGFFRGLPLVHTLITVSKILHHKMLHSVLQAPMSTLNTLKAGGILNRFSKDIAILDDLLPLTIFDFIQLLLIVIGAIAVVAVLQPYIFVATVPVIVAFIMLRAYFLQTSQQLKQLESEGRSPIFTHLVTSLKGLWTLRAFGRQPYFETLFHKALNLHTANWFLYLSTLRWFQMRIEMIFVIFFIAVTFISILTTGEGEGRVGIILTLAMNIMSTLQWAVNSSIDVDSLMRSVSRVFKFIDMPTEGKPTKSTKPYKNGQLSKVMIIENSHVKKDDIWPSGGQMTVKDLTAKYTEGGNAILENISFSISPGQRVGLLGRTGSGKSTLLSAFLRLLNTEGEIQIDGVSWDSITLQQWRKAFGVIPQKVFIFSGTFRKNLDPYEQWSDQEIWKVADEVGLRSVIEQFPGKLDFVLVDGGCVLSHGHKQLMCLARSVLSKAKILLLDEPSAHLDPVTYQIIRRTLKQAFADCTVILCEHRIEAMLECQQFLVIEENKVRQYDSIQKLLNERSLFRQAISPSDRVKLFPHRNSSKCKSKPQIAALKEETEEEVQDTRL

Row | Compound | AI (%) additivity index (F508del-CFTR [1]) [%] | structure-activity comparison of corrector potency/activity (F508del-CFTR [1]) | AI additivity index (F508del-CFTR [1]) [%] | also measured
1 | CN[C@@H]1[C@@H](O)[C@@H](O[C@@H]2[C@@H](O)[C@H](O[C@H]3O[C@H]([C@@H](C)O)[C@@H](O)[C@H](O)[C@H]3N)[C@@H](N)C[C@H]2N)OC[C@]1(C)O [G418, reference compound] | – | – | – | CFTR activity (QR) in G542X-CFTR cells (G542X-CFTR): modest but significant increase in CFTR activity
2 | CCOC(=O)c1c(Br)c2c(n1Cc1cccc(C)c1)-c1[nH]c(=O)c(S(=O)(=O)c3ccc(Cl)cc3)cc1CC2 [PP030, Ethyl 3-bromo-7-[(4-chlorophenyl)sulfonyl]-1-(3-methylbenzyl)-8-oxo-4,5,8,9-tetrahydro-1H-pyrrolo[3,2-h]quinoline-2-carboxylate] | 96 | – | – | –
3 | CCOC(=O)c1c(Br)c2ccc3cc(S(=O)(=O)c4ccccc4)c(=O)[nH]c3c2n1Cc1ccc(C)cc1 [13 (PP057), Ethyl 7-(benzenesulfonyl)-3-bromo-1-[(4-methylphenyl)methyl]-8-oxo-8,9-dihydro-1H-pyrrolo[3,2-h]quinoline-2-carboxylate] | – | Increased activity | 272 | –
4 | CCOC(=O)c1cc2ccc3cc(S(=O)(=O)c4ccccc4)c(=O)[nH]c3c2n1Cc1ccc(C)cc1 [14 (PP058), Ethyl 1-(4-methylbenzyl)-8-oxo-7-(phenylsulfonyl)-8,9-dihydro-1H-pyrrolo[3,2-h]quinoline-2-carboxylate] | – | – | 177 | –

Second part, led by results:

Row | AI (%) additivity index (F508del-CFTR [1]) [%] | structure-activity comparison of corrector potency/activity (F508del-CFTR [1]) | AI additivity index (F508del-CFTR [1]) [%] | Compound | also measured
5 | 261 | Increased activity | – | Cc1ccc(Cn2c(C(=O)OC(C)C)c(Br)c3c2-c2[nH]c(=O)c(S(=O)(=O)c4ccccc4)cc2CC3)cc1 [PP034, Propan-2-yl 7-(benzenesulfonyl)-3-bromo-1-[(4-methylphenyl)methyl]-8-oxo-4,5,8,9-tetrahydro-1H-pyrrolo[3,2-h]quinoline-2-carboxylate] | band C (mature form) expression versus VX-809 alone (F508del-CFTR [2]): markedly enhances the abundance of the mature form of the protein; also recorded: marked increase in band C expression
6 | 34 | – | – | CCOC(=O)c1cc2c(n1CCCN(C)C)-c1[nH]c(=O)c(S(=O)(=O)c3ccccc3)cc1CC2 [PP075, Ethyl 7-(benzenesulfonyl)-1-[3-(dimethylamino)propyl]-8-oxo-4,5,8,9-tetrahydro-1H-pyrrolo[3,2-h]quinoline-2-carboxylate] | –
